Results from USRE47193E1, “Selectively substituted quinoline compounds” (EISAI R&D MANAGEMENT CO., LTD., priority 2013, dated 2019).
Where “and” joins values, the source holds several entries; their conditions need not be identical. Identical values can stand only once. Like-named read-outs stand apart in the source and are kept apart here.

Key:
TLR7/8 [1] = tested on: T1, TLR7/8; assay: Subsequent human PBMC assay, various TLR7/8 ligands, IL-6 and IFN-α blockade; assay type: cell-based
T1 construct: other: human PBMC; ligand SL4-Ig; individual donors 1-6; average of donors; ligand RNA40-DOTAP; individual donors; ligand R848; ligand
Description: (§1) Human PBMC Cell-Based Assay. Human peripheral blood mononuclear cells (PBMC) were isolated from freshly-drawn heparinized (10 USP units/ml, Hospira, Lakeforest, Ill.) healthy donor whole blood by density gradient (Histopaque® 1077, Sigma, Inc., St. Louis, Mo.). Briefly, 25 ml blood was diluted with 15 ml PBS (without Ca^2+, Mg^2+) in a 50 ml conical tube, and 12 ml Histopaque was underlaid using a spinal needle. Tubes were centrifuged for 45 minutes at 1200 rpm (350×g), and PBMC were collected from the buffy coat. Cells were then washed twice in PBS, and red blood cells were lysed by suspension in 5 ml ammonium chloride solution (1× Red Blood Cell Lysis Buffer, eBioscience) for 5 minutes at room temperature. After a final wash in PBS, PBMC were resuspended at a final concentration of 2×10^6/ml in RPMI-1640 media with L-glutamine (Invitrogen) and supplemented with 25 mM HEPES (Mediatech, Inc, Manassas Va.), 10% fetal bovine serum (HyClone, Logan, Utah), and Penicillin-Streptomycin-Glutamine (Mediatech) and plated at 100 ul/well (2×10^5 cells/well) in tissue culture treated 96-well plates (Falcon).
(§2) Antagonist compounds solubilized and serial diluted in 100% DMSO were added in triplicate to cells to yield a final concentration of 0.1% DMSO (v/v). Hydroxychloroquine (Acros Organics) solubilized and serial diluted in PBS was added in triplicate to cells. PBMC were incubated with antagonist compounds or HCQ for 30 minutes at 37° C., 5% CO2 before adding various TLR agonist reagents in 100 ul complete media per well as follows (final concentrations indicated): R848 (Resiquimod; GLSynthesis, Worcester, Mass.) at 1 uM for TLR7 and TLR8, LPS (Sigma) at 10 ng/ml for TLR4, and CpG-2216 (InvivoGen) at 5 ug/ml for TLR9. To prepare a TLR7/8 agonist that mimics RNA-containing auto-antibody immune complexes in lupus patients, a 26-mer RNA with a sequence derived from human U1 snRNA stem loop IV [(sequence: […]-[…] (SEQ ID NO: 2) with phosphorothioate backbone] was synthesized (Dharmacon, Inc., Lafayette, Colo.), which has been shown previously to be a potent TLR7 and TLR8 agonist. This RNA molecule was diluted to 2.5 μM in serum-free RPMI, and mouse anti-human single stranded DNA monoclonal antibody (MAB3034, Millipore, Inc., Billerica, Mass.), which also cross-reacts with RNA, was added at a 1:25 dilution or at 1 ug/ml. The resulting “RNA-Ig” stimulus was incubated at room temperature for 15-30 minutes before adding to cells. PBMC were incubated with the various TLR agonists for 20 hours at 37° C., 5% CO2. Cell culture supernatants were collected, and levels of various human cytokines were assessed as indicated by standard ELISA procedure according to the manufacturer's recommended protocol (BD Biosciences, Inc., San Diego, Calif.). In a subsequent assay (Table 6) the ability of ER-899742 to block stimulation of normal PBMC by various TLR7/8 ligands, but not DNA-mediated activation of TLR9, was examined. In this assay cells were plated at 1×10^5 cells/well in 100 ul in 96-well plates.

TLR7/8 [2] = tested on: T2, TLR7/8; assay: as above; assay type: cell-based
T2 construct: other: human PBMC; ligand SL4-Ig; individual donors 1-6; average of donors; ligand RNA40-DOTAP; individual donors; ligand R848; ligand R848
Description: as §1, §2

[3] = read-out: IC50 IFN-α Ave., ligand R848, average of donors
[4] = read-out: IC50 IFN-α Ave., ligand RNA40-DOTAP, average of donors
[5] = read-out: IC50 IFN-α Ave., ligand SL4-Ig, average of donors
[6] = read-out: IC50 IL-6 Ave., ligand R848, average of donors
[7] = read-out: IC50 IL-6 Ave., ligand RNA40-DOTAP, average of donors
[8] = read-out: IC50 IL-6 Ave., ligand SL4-Ig, average of donors

Structure (SMILES)	IC50 (TLR7/8 [1]; [3])	IC50 (TLR7/8 [1]; [4])	IC50 (TLR7/8 [1]; [5])	IC50 (TLR7/8 [1]; read-out: IC50 IFN-α, ligand R848, individual donors, hydrochloride)	IC50 (TLR7/8 [1]; read-out: IC50 IFN-α, ligand RNA40-DOTAP, individual donors, hydrochloride)	IC50 (TLR7/8 [1]; read-out: IC50 IFN-α, ligand SL4-Ig, individual donors 1-6, hydrochloride)	IC50 (TLR7/8 [2]; read-out: IC50 IL-6, ligand R848, individual donors, hydrochloride)	IC50 (TLR7/8 [2]; read-out: IC50 IL-6, ligand RNA40-DOTAP, individual donors, hydrochloride)	IC50 (TLR7/8 [2]; read-out: IC50 IL-6, ligand SL4-Ig, individual donors 1-6, hydrochloride)	IC50 (TLR7/8 [2]; [6])	IC50 (TLR7/8 [2]; [7])	IC50 (TLR7/8 [2]; [8])	IC50 (TLR7/8 [1]; read-out: IC50 IFN-α, ligand R848, individual donors)	IC50 (TLR7/8 [1]; read-out: IC50 IFN-α, ligand RNA40-DOTAP, individual donors)	IC50 (TLR7/8 [1]; read-out: IC50 IFN-α, ligand SL4-Ig, individual donors 1-6)	IC50 (TLR7/8 [2]; read-out: IC50 IL-6, ligand R848, individual donors)	IC50 (TLR7/8 [2]; read-out: IC50 IL-6, ligand RNA40-DOTAP, individual donors)	IC50 (TLR7/8 [2]; read-out: IC50 IL-6, ligand SL4-Ig, individual donors 1-6)
C[C@@H]1CN(c2ccc(C#N)c3ncccc23)C[C@H](C(=O)N[C@H]2CNC[C@H]2F)O1.Cl [ER-899742, (2R,6R)-4-(8-cyanoquinolin-5-yl)-N-[(3S,4R)-4-fluoropyrrolidin-3-yl]-6-methylmorpholine-2-carboxamide hydrochloride]	11 nM	13.9 nM	1.4 nM	12 nM and 11 nM and 10 nM	9.6 nM and 18 nM and 11 nM and 17 nM	2.2 nM and 0.5 nM	6.5 nM and 7 nM and 4.9 nM and 5.5 nM and 8.1 nM and 3.4 nM	23 nM and 54 nM and 33 nM and 29 nM and 14 nM and 35 nM	3.2 nM and 4.3 nM and 2.5 nM and 3.3 nM and 7.7 nM	5.9 nM	31.3 nM	4.2 nM	–	–	–	–	–	–
CCN(CCO)CCCC(C)Nc1ccnc2cc(Cl)ccc12 (stereo not drawn) [HCQ, hydroxychloroquine, reference compound]	1950 nM	598 nM	392 nM	–	–	–	–	–	–	> 10000 nM	12100 nM	4100 nM	1250 nM and 2570 nM and 2030 nM	490 nM and 410 nM and 990 nM and 502 nM	459 nM and 324 nM	> 10000 nM	10000 nM and 10800 nM and > 10000 nM and 15500 nM and 18000 nM and 6100 nM	5200 nM and 3700 nM and 3200 nM and 3600 nM and 4300 nM and 4600 nM
